The values that follow come from patent US11912679B2, “Aryl alkynamide derivatives” (Astellas Pharma, Inc., priority 2022, dated 2024).

Structures can show the parent of a compound that is named as a salt.

For this test, the system named is IRF pathway of THP-1. Briefly: Test on the activity of IRF pathway of THP-1 (THP1-Dual reporter cells stimulated with 2'3'-cGAMP). Particulars: Homo sapiens, PMA-treated, 2'3'-cGAMP 5 ug/mL, QUANTI-Luc readout, read-out: IC50 of inhibition of the activity of IRF pathway. In kind it is cell-based. Here is the method:
0.3 uM of PMA (phorbol myristate acetate, SIGMA, P1585) was added to THP1-Dual™ cells (NF-κB-SEAP IRF-Luc Reporter Monocytes, Invivogen, thpd-nfis), and the cells were cultured at 37° C. for 1 day in RPMI1640 with 10% Fetal Bovine Serum (FBS). A compound with a known concentration was added, and the cells were incubated at room temperature for 1 hour. Mammalian (non-canonical) CDN, cyclic [G(2′,5′)pA(3′,5′)p] (2′3′-cGAMP, Invivogen, tlrl-nacga23) was added to a final concentration of 5 ug/mL, and the cells were cultured at 37° C. On the following day, QUANTI-Luc™ (Secreted luciferase detection medium, Invivogen, rep-qlc) was added to the culture solution and the activity of IRF pathway was measured using a microplate reader. The inhibition ratio at each concentration was determined, where the activity of IRF pathway with no addition of the test compound or 2′3′-cGAMP was defined as 100% inhibition and the activity of IRF pathway with no addition of the test compound and with addition of 2′3′-cGAMP was defined as 0% inhibition. The IC50 value was calculated by sigmoid […] model non-linear regression analysis.
For `O=C(C#Cc1ccc(-c2ccccc2OC(F)(F)F)c(C(F)(F)F)c1)N1C[C@H](O)[C@@H](O)C1` [Example 70], the IC50 is 35 nM. As for `O=C(C#Cc1ccc(-c2ccccc2OC(F)(F)F)c(C(F)(F)F)c1)N1C[C@@H](O)[C@@H](O)C1` [Example 71], the IC50 is 43 nM. Turning to `O=C(C#Cc1ccc(-c2ccccc2OC(F)(F)F)c(C(F)(F)F)c1)N[C@@H]1COC[C@@H]1O` [Example 72], the IC50 worked out at 1210 nM. With `O=C(C#Cc1ccc(-c2ccccc2OC(F)(F)F)c(C(F)(F)F)c1)N[C@H]1COC[C@H]1O` [Example 73], the IC50 amounted to 99 nM.

Consider `O=C(C#Cc1ccc(-c2ccccc2OC(F)(F)F)c(C(F)(F)F)c1)NC[C@@H](O)CO` [Example 74], for which the concentration for half-maximal inhibition (IC50) turned out to be 48 nM. Next, `O=C(C#Cc1ccc(-c2ccccc2OC(F)(F)F)c(C(F)(F)F)c1)NC[C@H](O)CO` [Example 75]: 73 nM.

`CN(CCO)C(=O)C#Cc1ccc(-c2ccccc2OC(F)(F)F)c(C(F)(F)F)c1` [Example 76]: the IC50 turned out to be 76 nM. Regarding `O=C(C#Cc1ccc(-c2ccccc2OC(F)(F)F)c(C(F)(F)F)c1)N1CC(O)C1` [Example 77], the IC50 amounted to 91 nM.

In the case of `O=C(C#Cc1ccc(-c2ccccc2OC(F)(F)F)c(C(F)(F)F)c1)N1CC(O)(CO)C1` [Example 78], the IC50 turned out to be 51 nM. With `O=C(C#Cc1ccc(-c2ccc(OC(F)F)cc2)c(C(F)(F)F)c1)N1C[C@@H](O)[C@@H](O)C1` [Example 79], the IC50 is 185 nM. As for `O=C(C#Cc1ccc(-c2ccc(OC(F)F)cc2)c(C(F)(F)F)c1)N[C@H]1COC[C@H]1O` [Example 80], the IC50 was determined as 539 nM. The value for `O=C(C#Cc1ccc(-c2cccc(OC(F)F)c2)c(C(F)(F)F)c1)N[C@@H]1COC[C@@H]1O` [Example 81] was 37 nM; that for `O=C(C#Cc1ccc(-c2cccc(OC(F)F)c2)c(C(F)(F)F)c1)N[C@H]1COC[C@H]1O` [Example 82] was 239 nM; that for `O=C(C#Cc1ccc(-c2ccc(OC(F)F)cc2)c(C(F)(F)F)c1)N[C@@H]1COC[C@@H]1O` [Example 83] was 430 nM. For the compound `O=C(C#Cc1ccc(-c2ccc(Cl)cc2)c(C(F)(F)F)c1)N1C[C@@H](O)[C@@H](O)C1` [Example 84], the IC50 was determined as 435 nM. Next, `O=C(C#Cc1cnc(-c2ccc(C(F)(F)F)cc2)c(C(F)(F)F)c1)N1C[C@@H](O)[C@@H](O)C1` [Example 85]: 224 nM; `O=C(C#Cc1cnn(-c2ccc(F)cc2)c1C(F)(F)F)N1C[C@@H](O)[C@@H](O)C1` [Example 86]: 8040 nM. With `O=C(C#Cc1ccc(-c2ccccn2)cc1)N(CCO)c1ccccc1` [Example 87, N-(2-hydroxyethyl)-N-phenyl-3-[4-(pyridin-2-yl)phenyl]prop-2-ynamide], the IC50 is 1610 nM. On to `CN1CCN(C(=O)C#Cc2ccc(-c3ccncc3)cc2)CC1` [Example 88, 1-(4-methylpiperazin-1-yl)-3-[4-(pyridin-4-yl)phenyl]prop-2-yn-1-one], for which the IC50 was found to be 5550 nM. As to `O=C(C#Cc1ccc(-c2cccnc2)cc1)N(CCO)c1ccccc1` [Example 89], the half-inhibitory concentration (IC50) was 1690 nM. For `O=C(C#Cc1ccc(-c2ccccc2)c(C(F)(F)F)c1)Nc1cccc(C(=O)O)c1` [Example 90, 3-({3-[2-(trifluoromethyl)[1,1′-biphenyl]-4-yl]prop-2-ynoyl}amino)benzoic acid], the IC50 came out at 471 nM.

For the compound `O=C(O)CCN1CCN(C(=O)C#Cc2ccc(-c3ccccc3)c(C(F)(F)F)c2)CC1` [Example 91, 3-(4-{3-[2-(trifluoromethyl)[1,1′-biphenyl]-4-yl]prop-2-ynoyl}piperazin-1-yl)propanoic acid monohydrochloride], the 50% inhibitory concentration (IC50) was found to be 600 nM. Next, `O=C(O)c1ccc2c(c1)N(C(=O)C#Cc1ccc(-c3ccccc3)c(C(F)(F)F)c1)CC2` [Example 92, 1-{3-[2-(trifluoromethyl)[1,1′-biphenyl]-4-yl]prop-2-ynoyl}-2,3-dihydro-1H-indole-6-carboxylic acid]: 767 nM.

Take `O=C(O)CCCN1CCN(C(=O)C#Cc2ccc(-c3ccccc3)c(C(F)(F)F)c2)CC1` [Example 93]: the IC50 was 919 nM. Next, `O=C(O)C1CCN(C(=O)C#Cc2ccc(-c3ccccc3)c(C(F)(F)F)c2)C1` (stereo not shown) [Example 94]: 11800 nM; `CN1CCN(C(=O)C#Cc2cnn(-c3ccc(C(F)(F)F)cc3)c2)CC1` [Example 95, 1-(4-methylpiperazin-1-yl)-3-{1-[4-(trifluoromethyl)phenyl]-1H-pyrazol-4-yl}prop-2-yn-1-one]: 1440 nM; `O=C(C#Cc1ccc(-c2ccccc2)c(CN2CCCCC2)c1)N(C[C@@H](O)CO)c1ccccc1` [Example 96, N-[(2R)-2,3-dihydroxypropyl]-N-phenyl-3-{2-[(piperidin-1-yl)methyl][1,1′-biphenyl]-4-yl}prop-2-ynamide]: 80 nM. Regarding `O=C(C#Cc1ccc(-c2ccccc2)c(CN2CCOCC2)c1)NC[C@H](O)CO` [Example 97], the concentration for half-maximal inhibition (IC50) amounted to 4610 nM. Next, `COC1CCN(Cc2cc(C#CC(=O)NC[C@H](O)CO)ccc2-c2ccccc2)CC1` [Example 98]: 2570 nM; `N[C@H]1CCN(C(=O)C#Cc2ccc(-c3ccccc3)c(C(F)(F)F)c2)C1` [Example 100, 1-[(3S)-3-aminopyrrolidin-1-yl]-3-[2-(trifluoromethyl)[1,1′-biphenyl]-4-yl]prop-2-yn-1-one monooxalate]: 125 nM; `N[C@@H]1CCN(C(=O)C#Cc2ccc(-c3ccccc3)c(C(F)(F)F)c2)C1` [Example 101]: 190 nM.

Turning to `CN1CC2(C1)CN(C(=O)C#Cc1ccc(-c3ccccc3)cc1)C2` [Example 102], the IC50 stood at 842 nM.

As to `O=C(C#Cc1ccc(-c2ccccc2)c(C(F)(F)F)c1)N1CC[C@H](O)C1` [Example 103], the IC50 is 402 nM. Regarding `O=C(C#Cc1ccc(C2CCOCC2)c(C(F)(F)F)c1)N1C[C@@H](O)[C@@H](O)C1` [Example 104], the concentration for half-maximal inhibition (IC50) turned out to be 1790 nM. The value for `CC(C)(C)n1cc(-c2ccc(C#CC(=O)N3C[C@@H](O)[C@@H](O)C3)cc2C(F)(F)F)cn1` [Example 105] was 620 nM; that for `O=C(C#Cc1ccc(-c2ccccc2)c(C(F)(F)F)c1)N[C@H]1C[C@@H](O)[C@@H](O)C1` [Example 106, N-[(1r,3R,4S)-3,4-dihydroxycyclopentyl]-3-[2-(trifluoromethyl)[1,1′-biphenyl]-4-yl]prop-2-ynamide] was 358 nM; that for `O=C(C#Cc1ccc(-c2ccccc2)c(C(F)(F)F)c1)N[C@@H]1C[C@@H](O)[C@@H](O)C1` [Example 107] was 489 nM. `O=C(C#Cc1ccc(-c2ccccc2)c(C(F)(F)F)c1)N1CC[C@@H](O)C1` [Example 108]: the IC50 came out at 263 nM. With `O=C(C#Cc1ccc(-c2ccccc2C(F)(F)F)c(Cl)c1)N1C[C@@H](O)[C@@H](O)C1` [Example 109], the IC50 came to 112 nM. Regarding `CN(C)c1cc(C#CC(=O)N2C[C@@H](O)[C@@H](O)C2)ccc1-c1ccccc1C(F)(F)F` [Example 110], the half-inhibitory concentration (IC50) came to 1210 nM. Take `COc1cc(C#CC(=O)N2C[C@@H](O)[C@@H](O)C2)ccc1-c1ccccc1C(F)(F)F` [Example 111]: the IC50 was 1050 nM. The value for `Cc1cc(C#CC(=O)N2C[C@@H](O)[C@@H](O)C2)ccc1-c1ccccc1C(F)(F)F` [Example 112] was 887 nM; that for `O=C(C#Cc1ccc(-c2ccccc2)c(OC(F)F)c1)NC[C@H](O)CO` [Example 113] was 698 nM. As for `O=C(C#Cc1ccc(-c2ccccc2)c(C(F)(F)F)c1)NCCNS(=O)(=O)CCO` [Example 114], the IC50 worked out at 339 nM. With `O=C(C#Cc1cn(-c2ccc(F)cc2)c(C(F)(F)F)n1)NC[C@H](O)CO` [Example 115], the IC50 was determined as 4940 nM. Take `O=C(C#Cc1cnc(-c2ccccc2C(F)(F)F)cn1)N1C[C@@H](O)[C@@H](O)C1` [Example 116]: the half-inhibitory concentration (IC50) stood at 428 nM.

On to `O=C(C#Cc1ccc(-c2ccccc2C(F)(F)F)c2ncccc12)N1C[C@@H](O)[C@@H](O)C1` [Example 117], for which the IC50 was found to be 2830 nM. `O=C(C#Cc1ccc(-c2ccccc2C(F)(F)F)nn1)N1C[C@@H](O)[C@@H](O)C1` [Example 118]: the IC50 turned out to be 838 nM. The value for `NC(=O)c1cc(C#CC(=O)N2C[C@@H](O)[C@@H](O)C2)ccc1-c1ccccc1C(F)(F)F` [Example 119, 4-{3-[(3R,4S)-3,4-dihydroxypyrrolidin-1-yl]-3-oxoprop-1-yn-1-yl}-2′-(trifluoromethyl)[1,1′-biphenyl]-2-carboxamide] was 5260 nM; that for `N#Cc1cc(C#CC(=O)N2C[C@@H](O)[C@@H](O)C2)ccc1-c1ccccc1` [Example 120] was 324 nM. For the compound `O=C(C#Cc1ccc(-c2ccccc2)c(O)c1)N1C[C@@H](O)[C@@H](O)C1` [Example 121], the half-inhibitory concentration (IC50) was determined as 7780 nM. Regarding `COc1ncc(-c2ccc(C#CC(=O)N3C[C@@H](O)[C@@H](O)C3)cc2C(F)(F)F)cn1` [Example 122], the IC50 was found to be 3100 nM. The value for `CN(Cc1cc(C#CC(=O)N2C[C@@H](O)[C@@H](O)C2)ccc1-c1ccccc1C(F)(F)F)C1CC1` [Example 123] was 143 nM; that for `CS(=O)(=O)NCc1cc(C#CC(=O)N2C[C@@H](O)[C@@H](O)C2)ccc1-c1ccccc1C(F)(F)F` [Example 124] was 2000 nM.

On to `CS(=N)(=O)CCNC(=O)C#Cc1ccc(-c2ccccc2)c(C(F)(F)F)c1` (stereo not shown) [Example 125], for which the IC50 was found to be 322 nM.
